# Where “and” joins values, the source holds several entries; their conditions need not be identical. Identical values can stand only once.
# Tests used:
# [1] = test system: peripheral blast cells from AML patients; assay: Microarray gene expression analysis, AML patients treated with MGCD0103 in vivo; set-up: species or system human; settings: for Fold of Induction of CCL4 transcription / Fold of Induction of CCL7 transcription / Fold of Induction of IFNG transcription / Fold of Induction of THBS1 transcription: AML Patient A (clinical response)
# Method: Whole blood from either consenting healthy volunteers or consenting patients was centrifuged at 2500 rpm for 10 minutes at ambient temperature in a Sorvall RT-7 centrifuge (Mandel Scientific Co., Guelph, Ontario). Plasma was removed and buffy coat was collected. Five volumes of Erythrocyte Lysis Buffer (EL) (Qiagen Canada Inc., Mississauga, Ontario) were added into buffy coat. Buffy coat was incubated on ice for 20 minutes before it was centrifuged at 400 g for 10 minutes at 4° C. Supernatant was removed and buffy coat was washed twice with EL buffer and re-centrifuged. Buffy coat was resuspended in RPMI media and cells were counted with trypan blue exclusion. To isolate PBMCs, buffy coat cells were centrifuged over Lymphoprep (Axis-Shield, 1114544), and any remaining erythrocytes in the sample were lysed by treatment with EL lysis buffer (Qiagen, 79217). The cell pellets are washed and then re-suspended in RPMI containing 10% FBS.
# (§1) Biological analysis was performed using Biointerpreter software.
# (§2) Human patients with either solid tumors or leukemia/MDS diseases were enrolled in phase I studies with consensus forms. MGCD0103 were dosed into patients orally every other day (day 1, day 3, day 5 […]). Blood samples were withdrawled by using the Vacutainer sodium-heparin blood collection tubes (Becton Dickinson Laboratories, Franklin Lakes, N.J.) and shipped to the test site within 24 hours on ice-pack. Baseline samples were drawn immediately prior to the first drug dose, while the 24 hour samples were drawn at 24 hours post the first drug dose. The 48 hours samples were drawn at 48 hours post the first dose. For the 1 week samples, blood was drawn 72 hours after day 5 dose (3 accumulated doses during week 1).
# [2] = test system: human leukemic MV-4-11 cells; assay: Microarray gene expression analysis, MV-4-11 cells in vitro; format: cell-based; settings: MV-4-11 in vitro, 1 uM, c2-c5 = sample 1, 2, 3, sample 3 dye swap
# Method: Human cancer cell lines were from American Type Culture Collection (Manassas, Va.) and were all cultured following the vendor's instructions.
# as §1
# IL-6 = IL-6 protein levels in plasma by ELISA; format: in vivo, human; settings: leukemia patients, Day 8, ELISA (FIG. 17)
# Method: FIG. 17 Induction of plasma IL-6 from leukemia patients from treated with MGCD0103 at Day 8, analyzed by ELISA assays.
# Patient plasma samples at […] were analyzed by ELISA
# as §2
# Blood from patients was centrifuged at 2500 RPM for 10 min at 10° C. Plasma was separated and frozen until used. Plasma was thawed, and spun again at 2500 RPM for 10 min at 10° C. The level of IL-6 was determined by ELISA (eBioscience, San Diego, Calif.), following the manufacturer's instructions. IL-6 concentration (pg/ml) in the samples was calculated from a standard curve generated by using standard IL-6 also provided in the kit. […] All the data was calculated and plotted using Excel.
# histone H3 acetylation = assay: Histone acetylation of nuclear extracts from white blood cells; format: in vivo, human; settings: AML Patient A with clinical response (FIG. 9)
# Method: Human white peripheral cells were resuspended in 50 ul cold lysis buffer (10 mM Tris-HCl pH8.0, 1.5 mM MgCl2, 5 mM KCl, 0.5% NP-40, 5 mM Na butyrate plus protease inhibitors) and incubated on ice for 10 min. Cells were centrifuged at […] in an IEC Micromax centrifuge (Fisher Scientific Ltd., Nepean, Ontario) at 4° C. for 10-15 min and nuclei collected. Nuclei were washed with 50 ul lysis buffer by centrifugation at 2000 rpm at 4° C. for 10-15 min. Nuclei were resuspended in 35 ul ice cold Nuclear Lysis buffer (50 mM HEPES pH7.5, 500 mM NaCl, 1% NP-40, 1 mM EDTA, 10% glycerol, 5 mM NaButyrate and protease inhibitors) and sonicated 10 seconds using a VirSonic 300 sonicator (VirTis, Gardiner, N.Y.). Lysed nuclei were centrifuged at 15000 rpm at 4° C. for 5 min and supernatant collected for ELISA.
# Black plates were coated with 50 ul of diluted anti-Histone antibodies (H11-4, Chemicon, Temecula, Calif.) (1:1000 in TBS) and incubated at ambient temperature for 2 hours. Plates were washed twice with 50 ul of PBS and blocked with 1% BSA+0.1% TritonX-100 in PBS (50 ul) for 45 minutes. […] Fluoroscence development was allowed for 60 minutes in foil and plates were read on a fluorometer (Gemini XS, Molecular Devices, Sunnyvale, Calif.) at Excitation at 550 nm and emission at 610 nm with a cutoff of 590 nm (Auto PMT, 15 reads/well). Data were analyzed using Excel.
smiles,measurement,setting,value
Nc1ccccc1NC(=O)c1ccc(CNc2nccc(-c3cccnc3)n2)cc1 [MGCD0103],Fold of Induction of CCL4 transcription,[1]; 24 hr,1.4 fold
same,Fold of Induction of CCL7 transcription,[1]; 24 hr,2.3 fold
same,Fold of Induction of IFNG transcription,[1]; 24 hr,1.4 fold
same,Fold of Induction of THBS1 transcription,[1]; 24 hr,1.4 fold
same,Fold of Induction of CCL4 transcription,[1]; day 8,12.2 fold
same,Fold of Induction of CCL7 transcription,[1]; day 8,7.3 fold
same,Fold of Induction of IFNG transcription,[1]; day 8,2.5 fold
same,Fold of Induction of THBS1 transcription,[1]; day 8,2.8 fold
same,Induction of transcription of a subset of proapoptotic proteins,"[1]; peripheral blast cells, D8 vs 0 h, AML Patient A (response), in contrast to Patients B, C, D (FIG. 11)",Induction
same,"induction of transcription of the Table 5 genes (CCL7, CCL4, IFNG, THBS1)",[1]; three other AML patients without response,<= 1 fold
same,"Ratio vs control, ADORA1",[2],3.6 and 5.4 and 5.1
same,"Ratio vs control, AHR",[2],11.3 and 10.5 and 13.1 and 10.2
same,"Ratio vs control, APOE",[2],5.9 and 6.3 and 6.0 and 6.1
same,"Ratio vs control, AXUD1",[2],2.5 and 3.9 and 3.1
same,"Ratio vs control, BMF",[2],6.0 and 7.4 and 6.7 and 7.1
same,"Ratio vs control, CARD10",[2],2.7 and 4.4 and 3.0 and 3.9
same,"Ratio vs control, CASP5",[2],2.7 and 2.5 and 3.0 and 2.6
same,"Ratio vs control, CASP7",[2],5.0 and 7.2 and 5.2 and 5.8
same,"Ratio vs control, CAST",[2],2.7 and 3.0 and 2.5 and 3.2
same,"Ratio vs control, CD40",[2],8.0 and 7.2 and 7.0 and 8.7
same,"Ratio vs control, CDKN1A",[2],4.4 and 4.0 and 4.6 and 3.9
same,"Ratio vs control, CLU",[2],20.2 and 13.8 and 14.7 and 14.4
same,"Ratio vs control, DNASE2",[2],10.5 and 11.4 and 12.1 and 12.9
same,"Ratio vs control, EIF2AK2",[2],17.9 and 21.1 and 18.1 and 26.7
same,"Ratio vs control, GPR65",[2],7.8 and 6.5 and 7.9 and 6.6
same,"Ratio vs control, HIPK2",[2],4.1 and 6.6 and 4.6 and 4.2
same,"Ratio vs control, IL1B",[2],9.6 and 11.2 and 8.5 and 11.4
same,"Ratio vs control, IL3RA",[2],4.4 and 4.3 and 5.1 and 3.3
same,"Ratio vs control, IL18",[2],4.5 and 7.9 and 6.5 and 5.5
same,"Ratio vs control, LY86",[2],4.5 and 3.6 and 3.8 and 4.3
same,"Ratio vs control, MAP3K14",[2],2.6 and 2.8
same,"Ratio vs control, MX1",[2],35.8 and 27.5 and 38.0 and 23.2
same,"Ratio vs control, NALP1",[2],7.3 and 7.4 and 6.4
same,"Ratio vs control, NGFR",[2],3.0 and 2.7 and 2.6 and 2.8
same,"Ratio vs control, PDE1B",[2],4.3 and 3.4 and 4.8 and 3.6
same,"Ratio vs control, PPP3CA",[2],2.7 and 3.0 and 3.3 and 2.6
same,"Ratio vs control, PRKAR2B",[2],10.8 and 7.2 and 11.1 and 7.6
same,"Ratio vs control, TNFRSF21",[2],4.1 and 6.4 and 4.7 and 5.2
same,"Ratio vs control, TNFRSF25",[2],4.2 and 4.0 and 4.4 and 3.6
same,"Ratio vs control, TNFSF10",[2],7.4 and 7.2 and 10.1 and 5.6
same,"Ratio vs control, TNFSF14",[2],5.1 and 3.7 and 3.9 and 4.6
same,"Ratio vs control, BNIP3L","[2]; gene listed twice (r23, r58)",4.9 and 3.2 and 3.4 and 2.6 and 3.5 and 2.9
same,"Ratio vs control, CASP4","[2]; gene listed twice (r64, r66)",2.7 and 2.8 and 2.6 and 2.9 and 3.0 and 2.5 and 3.1
same,induction of plasma IL-6,IL-6,induction
same,induction of histone H3 acetylation in peripheral white cells,histone H3 acetylation,induction

# From patent publication US20070292351A1, “Assay for efficacy of histone deacetylase inhibitors” (Methylgene, Inc., priority 2006, published 2007)
